Measured values from patent US20250092044A1, “Kinase Inhibitors” (Incyte Corporation, priority 2023, published 2025).

Experiments:
[1] = test system: pSTAT5 in SET-2 cells in whole blood; assay: pSTAT5 SET-2 Whole Blood MSD Assay; format: cell-based; conditions: Homo sapiens, 2 hour incubation, read-out: SET2 WB IC50
Protocol: SET-2 cells shipped from ABS, RPMI1640 medium, Fetal Bovine Serum from Gibco, Phospho-STAT5a,b Whole Cell Lysate Kit from Mesoscale, Retronectin (Recombinant Human Fibronectin Fragment) from TaKaRa, 96 well cell culture plate flat bottom from Corning, lysis buffer from Cell Signaling Technology, and sterile PBS from Gibco. Whole Blood from by BioIVT.
SET-2 cells were cultured in RPMI media with 20% FBS at 37° C. humidified incubator supplied with 5% CO2. On the day of the assay, 40 uL per well of diluted retronectin working solution was added to sterile 96-well clear flat bottom tissue culture plates (1:200 dilution of retronectin in sterile PBS) and incubated at 37 C for 1 hour. After 1 hour, the retronectin working solution was aspirated and SET-2 cells were seeded at 100,000/well in RPMI+20% FBS. Cells were incubated overnight at 37° C. and 5% CO2. The next day, the medium was removed and 40 μL of diluted compounds in serum-free RPMI and whole blood was added to the cells for a 2 hour incubation at 37° C. and 5% CO2. The compound starting concentration is 20 μM and 2.5 fold serial diluted down to 0.21 nM. The whole blood and compound mixture was then aspirated off using the BlueCat plate washer and washed 1× with PBS. Cells were lysed by adding 40 μL of 3× complete lysis buffer and shaken at room temperature for 45-60 minutes (complete lysis buffer consists of Cell Signaling Technology lysis buffer diluted to 3× and supplemented with Mesoscale's protease inhibitor, phosphatase I inhibitor, and phosphatase II inhibitor). The pSTAT5 MSD plates were blocked by adding 150 μL of Blocker A solution per well to the MSD plates and incubated at room temperature with shaking at 400 rpm for one hour or longer. After blocking, plates were washed 3× with 300 μL/well of 1× Tris Wash Buffer. After lysis, added 25 μL per well of lysed sample was added to MSD plate and incubated with shaking at 4° C. wrapped in foil overnight. The next day, plates were washed again and 25 μL/well of diluted 1× Detection Antibody Solution, wrapped in foil, and incubated at room temperature with shaking at 400 rpm for 1 hour. Plates were then washed again and lastly, 150 μL/well of 1× Read Buffer T was added to all wells. Plates were analyzed on MSD Discovery within 5 minutes. […] Data analysis was performed in GraphPad Prism using a 4-parameter fit and data was reported as Average±SD.

[2] = target: pseudo-kinase domain (JH2) of human V617F mutant JAK2 (Homo sapiens (Human), UniProt O60674, F794H/V617F/W659A/W777A); assay: JAK2 LanthaScreen JH2-V617F Binding Assay; conditions: read-out: JH2 V617F Bind IC50
Sequence of pseudo-kinase domain (JH2) of human V617F mutant JAK2 (O60674 536-812 V617F/W659A/W777A/F794H): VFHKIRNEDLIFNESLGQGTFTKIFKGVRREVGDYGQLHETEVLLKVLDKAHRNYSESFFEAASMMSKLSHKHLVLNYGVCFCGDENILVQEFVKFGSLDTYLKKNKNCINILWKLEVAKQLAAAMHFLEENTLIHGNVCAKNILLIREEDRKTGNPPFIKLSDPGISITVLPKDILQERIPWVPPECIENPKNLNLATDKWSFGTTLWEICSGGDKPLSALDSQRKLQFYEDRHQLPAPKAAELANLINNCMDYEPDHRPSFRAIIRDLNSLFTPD
How it was run: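 Biotinylated His-Avi JAK2 JH2 (aa 536-812, V617F plus W659A/W777A/F794H; 0.26 nM) incubated 1 h at 25 °C with compound, 50 nM fluorescent JH2 tracer and 0.25 nM streptavidin-Tb in Tris pH 7.5 buffer. TR-FRET tracer displacement read; nonspecific binding with 2 mM ATP; IC50 from four-parameter fit.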

Compound | IC50 [1] [µM] | IC50 [2] [µM]
[2H]C([2H])([2H])n1c(=O)n([C@@H]2CC[C@@H](NC(=O)OC)C2)c2c3c(-c4ccc5c(c4)COC5(C)C)c(-c4ccc(C(=O)N(C)C)cc4)[nH]c3ncc21 [Example 30, methyl ((1R,3R)-3-(8-(1,1-dimethyl-1,3-dihydroisobenzofuran-5-yl)-7-(4-(dimethylcarbamoyl)phenyl)-3-(methyl-d3)-2-oxo-3,6-dihydroimidazo[4,5-d]pyrrolo[2,3-b]pyridin-1(2H)-yl)cyclopentyl)carbamate] | ≤ 2.5 | ≤ 0.01
COCCN(C)C(=O)c1ccc(-c2[nH]c3ncc4c(c3c2-c2ccc3c(cnn3C(C)C)c2)n([C@@H]2CC[C@@H](NC(=O)OC)C2)c(=O)n4C)cc1F [Example 15, Methyl ((1R,3R)-3-(7-(3-fluoro-4-((2-methoxyethyl)(methyl)carbamoyl)phenyl)-8-(1-isopropyl-1H-indazol-5-yl)-3-methyl-2-oxo-3,6-dihydroimidazo[4,5-d]pyrrolo[2,3-b]pyridin-1(2H)-yl)cyclopentyl)carbamate] | 5 to 7.5 | ≤ 0.01
CCNC(=O)c1ccc(-c2[nH]c3ncc4c(c3c2-c2ccc3c(cnn3C(C)C)c2)n([C@@H]2CC[C@@H](NC(=O)OC)C2)c(=O)n4C)cc1F [Example 6, Methyl ((1R,3R)-3-(7-(4-(ethylcarbamoyl)-3-fluorophenyl)-8-(1-isopropyl-1H-indazol-5-yl)-3-methyl-2-oxo-3,6-dihydroimidazo[4,5-d]pyrrolo[2,3-b]pyridin-1(2H)-yl)cyclopentyl)carbamate] | 2.5 to 5 | ≤ 0.01
CCNC(=O)c1ccc(-c2[nH]c3ncc4c(c3c2-c2ccc3c(cnn3C(C)C)c2)n([C@@H]2CC[C@@H](NC(=O)OC)C2)c(=O)n4C)cc1 [Example 23, Methyl ((1R,3R)-3-(7-(4-(ethylcarbamoyl)phenyl)-8-(1-isopropyl-1H-indazol-5-yl)-3-methyl-2-oxo-3,6-dihydroimidazo[4,5-d]pyrrolo[2,3-b]pyridin-1(2H)-yl)cyclopentyl)carbamate] | 2.5 to 5 | ≤ 0.01
CNC(=O)c1ccc(-c2[nH]c3ncc4c(c3c2-c2ccc3c(cnn3C(C)C)c2)n([C@@H]2CC[C@@H](NC(=O)OC)C2)c(=O)n4C)cc1 [Example 21, Methyl ((1R,3R)-3-(8-(1-isopropyl-1H-indazol-5-yl)-3-methyl-7-(4-(methylcarbamoyl)phenyl)-2-oxo-3,6-dihydroimidazo[4,5-d]pyrrolo[2,3-b]pyridin-1(2H)-yl)cyclopentyl)carbamate] | > 7.5 | ≤ 0.01
COC(=O)N[C@@H]1CC[C@@H](n2c(=O)n(C)c3cnc4[nH]c(-c5ccc(C(=O)N6CCOCC6)c(F)c5)c(-c5ccc6c(cnn6C(C)C)c5)c4c32)C1 [Example 16, Methyl ((1R,3R)-3-(7-(3-fluoro-4-(morpholine-4-carbonyl)phenyl)-8-(1-isopropyl-1H-indazol-5-yl)-3-methyl-2-oxo-3,6-dihydroimidazo[4,5-d]pyrrolo[2,3-b]pyridin-1(2H)-yl)cyclopentyl)carbamate] | 2.5 to 5 | ≤ 0.01
COC(=O)N[C@@H]1CC[C@@H](n2c(=O)n(C)c3cnc4[nH]c(-c5ccc(C(=O)NC6CC6C(F)(F)F)c(F)c5)c(-c5ccc6c(cnn6C(C)C)c5)c4c32)C1 (stereo partly drawn) [Example 10, Methyl ((1R,3R)-3-(7-(3-fluoro-4-((2-(trifluoromethyl)cyclopropyl)carbamoyl)phenyl)-8-(1-isopropyl-1H-indazol-5-yl)-3-methyl-2-oxo-3,6-dihydroimidazo[4,5-d]pyrrolo[2,3-b]pyridin-1(2H)-yl)cyclopentyl)carbamate] | > 7.5 | ≤ 0.01
CNC(=O)c1ccc(-c2[nH]c3ncc4c(c3c2-c2ccc3c(cnn3C(C)C)c2)n([C@@H]2CC[C@@H](NC(=O)OC)C2)c(=O)n4C)cc1F [Example 12, Methyl ((1R,3R)-3-(7-(3-fluoro-4-(methylcarbamoyl)phenyl)-8-(1-isopropyl-1H-indazol-5-yl)-3-methyl-2-oxo-3,6-dihydroimidazo[4,5-d]pyrrolo[2,3-b]pyridin-1(2H)-yl)cyclopentyl)carbamate] | > 7.5 | ≤ 0.01
COC(=O)N[C@@H]1CC[C@@H](n2c(=O)n(C)c3cnc4[nH]c(-c5ccc(C(=O)NC6CC6(F)F)c(F)c5)c(-c5ccc6c(cnn6C(C)C)c5)c4c32)C1 (stereo partly drawn) [Example 9, Methyl ((1R,3R)-3-(7-(4-((2,2-difluorocyclopropyl)carbamoyl)-3-fluorophenyl)-8-(1-isopropyl-1H-indazol-5-yl)-3-methyl-2-oxo-3,6-dihydroimidazo[4,5-d]pyrrolo[2,3-b]pyridin-1(2H)-yl)cyclopentyl)carbamate] | 5 to 7.5 | ≤ 0.01
COCCNC(=O)c1ccc(-c2[nH]c3ncc4c(c3c2-c2ccc3c(cnn3C(C)C)c2)n([C@@H]2CC[C@@H](NC(=O)OC)C2)c(=O)n4C)cc1F [Example 14, Methyl ((1R,3R)-3-(7-(3-fluoro-4-((2-methoxyethyl)carbamoyl)phenyl)-8-(1-isopropyl-1H-indazol-5-yl)-3-methyl-2-oxo-3,6-dihydroimidazo[4,5-d]pyrrolo[2,3-b]pyridin-1(2H)-yl)cyclopentyl)carbamate] | 5 to 7.5 | ≤ 0.01
COC(=O)N[C@@H]1CC[C@@H](n2c(=O)n(C)c3cnc4[nH]c(-c5ccc(C(=O)NC6(C(F)(F)F)CC6)c(F)c5)c(-c5ccc6c(cnn6C(C)C)c5)c4c32)C1 [Example 13, Methyl ((1R,3R)-3-(7-(3-fluoro-4-((1-(trifluoromethyl)cyclopropyl)carbamoyl)phenyl)-8-(1-isopropyl-1H-indazol-5-yl)-3-methyl-2-oxo-3,6-dihydroimidazo[4,5-d]pyrrolo[2,3-b]pyridin-1(2H)-yl)cyclopentyl)carbamate] | 5 to 7.5 | ≤ 0.01
COC(=O)N[C@@H]1CC[C@@H](n2c(=O)n(C)c3cnc4[nH]c(-c5ccc(C(=O)NC6CC6)c(F)c5)c(-c5ccc6c(cnn6C(C)C)c5)c4c32)C1 [Example 8, Methyl ((1R,3R)-3-(7-(4-(cyclopropylcarbamoyl)-3-fluorophenyl)-8-(1-isopropyl-1H-indazol-5-yl)-3-methyl-2-oxo-3,6-dihydroimidazo[4,5-d]pyrrolo[2,3-b]pyridin-1(2H)-yl)cyclopentyl)carbamate] | 5 to 7.5 | ≤ 0.01
COC(=O)N[C@@H]1CC[C@@H](n2c(=O)n(C)c3cnc4[nH]c(-c5ccc(C(=O)NCC(F)(F)F)c(F)c5)c(-c5ccc6c(cnn6C(C)C)c5)c4c32)C1 [Example 11, Methyl ((1R,3R)-3-(7-(3-fluoro-4-((2,2,2-trifluoroethyl)carbamoyl)phenyl)-8-(1-isopropyl-1H-indazol-5-yl)-3-methyl-2-oxo-3,6-dihydroimidazo[4,5-d]pyrrolo[2,3-b]pyridin-1(2H)-yl)cyclopentyl)carbamate] | > 7.5 | ≤ 0.01
